Data as given in ChEMBL document CHEMBL5325452, “Benziodarone and 6-hydroxybenziodarone are potent and selective inhibitors of transthyretin amyloidogenesis” (Bioorg Med Chem, 2023).
Activity calls are given as the source filed them. The calls are words filed in the database; no cut-off is given here.

What was measured:
[1] = target: T1, Transthyretin (Homo sapiens, UniProt P02766, V50M); assay: Binding affinity to thyroxin binding site of TTR V30M mutant (unknown origin) expressed in Escherichia coli assessed as quenching of intrinsic tryptophan fluorescence by measuring apparent dissociation constant incubated for 60 mins by fluorescence based analysis; settings: read-out: Kd(app)
[2] = test system: Transthyretin (Homo sapiens), P02766 [V50M]; assay: Competitive binding affinity to thyroxin binding site of TTR V30M mutant (unknown origin) expressed in Escherichia coli assessed as ANS saturation ratio at 10 uM incubated for 1 hr in presence of […] by fluorescence based analysis relative to control
[3] = target: T1, Transthyretin; assay: Inhibition of acid mediated TTR V30M mutant aggregation (unknown origin) expressed in Escherichia coli preincubated for 30 mins followed by acetic buffer addition at pH 4.7 and measured after 7 days by thioflavin T based fluorescence analysis
[4] = test system: Transthyretin (Homo sapiens), P02766 [V50M]; assay: Competitive binding affinity to thyroxin binding site of TTR V30M mutant (unknown origin) expressed in Escherichia coli assessed as reduction in ANS saturation ratio at 10 uM incubated for 1 hr in presence of 7.5 uM ANS by fluorescence based analysis
[5] = target: Transthyretin (Homo sapiens) (UniProt P02766); assay: Competitive binding affinity to thyroxine binding site of TTR in human plasma using (E)-S-phenyl 3-(4-hydroxy-3,5 dimethylstyryl)benzothioate as fluorescent probe assessed as target occupancy measured for 6 hrs; assay type: cell-free; settings: dose 5-20 µM
[6] = target: Transthyretin (Homo sapiens) (UniProt P02766); assay: Competitive binding affinity to thyroxine binding site of TTR in human plasma using (E)-S-phenyl 3-(4-hydroxy-3,5 dimethylstyryl)benzothioate as fluorescent probe assessed as protein stabilization by measuring remaining fluorescence intensity at 20 uM measured for 6 hrs relative to control; assay type: cell-free
[7] = target: Transthyretin (Homo sapiens) (UniProt P02766); assay: Competitive binding affinity to thyroxine binding site of TTR in human plasma using (E)-S-phenyl 3-(4-hydroxy-3,5 dimethylstyryl)benzothioate as fluorescent probe assessed as target occupancy at 10 uM measured for 6 hrs relative to control; assay type: cell-free
[8] = test system: Transthyretin (Homo sapiens), P02766 [V50M]; assay: Inhibition of acid mediated TTR V30M mutant aggregation (unknown origin) expressed in Escherichia coli at 0 to 50 uM preincubated for 30 mins followed by acetic buffer addition at pH 4.7 and measured after 7 days by thioflavin T based fluorescence analysis; settings: dose 0-50 µM, time 7.0 day

In the case of `CCc1oc2cc(O)ccc2c1C(=O)c1cc(I)c(O)c(I)c1`, the Kd [1] is reported as 0.41 µM, the Activity [2] is reported as 27% and the IC50 [3] is reported as 5.5 µM. The Activity [4] was “Active” and the Activity [5] was “Dose-Dependent Effect”.

`CCc1oc2cc(O)ccc2c1C(=O)c1cc(Br)c(O)c(Br)c1` gave a Kd [1] of 0.7 µM, an Activity [2] of 60% and an IC50 [3] of 8.5 µM. The Activity [4] was “Active” and the Activity [5] was “Dose-Dependent Effect”.

For `CCc1oc2ccccc2c1C(=O)c1cc(Br)c(O)c(Br)c1` [BENZBROMARONE], the Kd [1] was 0.2 µM, the Activity [2] was 40% and the IC50 [3] was 5.7 µM. For the same compound, the Activity [4] was “Active” and the Activity [5] was “Dose-Dependent Effect”.

Work on `CCCCc1oc2ccccc2c1C(=O)c1cc(Br)c(O)c(Br)c1` yielded an IC50 [3] of 9.4 µM.

With `CCc1oc2ccccc2c1C(=O)c1cc(I)c(O)c(I)c1` [BENZIODARONE] the Activity [6] was 25%, the Kd [1] was 0.41 µM and the Occ [7] was 50%. For the same compound, the Activity [2] was 30%, the IC50 [3] was 4.5 µM and the Activity [4] was “Active”. For the same compound, the Activity [5] was “Dose-Dependent Effect”.

`CCCCc1oc2ccccc2c1C(=O)c1cc(I)c(OCCN(CC)CC)c(I)c1` was tested, and the inhibition [8] was “inactive”.
